Test results: patent US8680282B2, “Cyclic inhibitors of carnitine palmitoyltransferase and treating cancer” (University Health Network, priority 2007, dated 2014)

How the values were obtained:
Assay in all cases: Cancer cell growth inhibition, SRB assay
Assay type in all cases: cell-based, human
A172 = settings: SRB at Day 6; for Percentage of Growth Inhibition: A172, at 10 μM, NE = no activity at 10 micromolar; for GI50: Homo sapiens, A 172, 144 h, A172 (Brain), triplicate
Method: (§1) Human cancer cells (MCF-7, H358, H460, HCT116 p53^+/+, HCT116 p53^−/−, A172, PC-3, DU-145 and SW626) were maintained in DMEM medium containing 10% Fetal Bovine Serum (FBS) (Invitrogen, Burlington, ON, Canada) and normal cells HMEC, 184A1, NHBE and PrEC were cultured in MEGM, MEGM plus transferring and cholera toxin, BEGM and PrEGM supplemented with various growth factors (Cambrex, Charles city, Iowa, USA), respectively.
(§2) Compounds of Examples S1 to S30, and 4-(carboxymethyl)-4-(6-(3-hexyloxy)phenoxy)hexanoamido)-1,1-dimethylpiperidinium 2,2,2-trifluoroactate (“Compound A”) were tested in this example. Each of the tested compounds was dissolved in DMSO and further diluted in cell culture medium for the experiments performed. Cells were seeded into 96-well plates with 1,500-5,000 cells/well according to cell growth rate. After 24 h, DMEM medium containing 10% FBS were changed to DMEM containing 3% FBS for cancer cells. The compound was added into the cell culture at the indicated concentrations, and the final concentration of DMSO was adjusted to a final concentration of 0.1%. Cell viability was assessed by Sulforhodamine B (SRB) assay at Day 6.
(§3) Sulforhodamine B (SRB) (Sigma, Oakville, ON, Canada) is a water-soluble dye that binds to the basic amino acids of the cellular proteins. Thus, colorimetric measurement of the bound dye provides an estimate of the total protein mass that is related to the cell number. The cells were fixed in situ by gently aspirating off the culture media and adding 50 ul of cold 10% Tri-chloroacetic Acid (TCA) per well and incubated at 4° C. for 30-60 min. The plates were washed five times with water and allowed to air dry for 5 min. 50 ul of 0.4% (w/v) SRB dissolved in 1% (v/v) acetic acid were added into each well, plates were then incubated at RT for 30 min for staining, washed four times with 1% acetic acid to remove any unbound dye and then allowed to air dry for 5 min. Stain was solubilized with 100 ul of 10 mM Tris pH 10.5 per well. Absorbance was read at 570 nm on a spectrophotometer. GI50 (compound concentration required for 50% of growth inhibition) was calculated using GraphPad Prism 4.0 software (GraphPad Software, Inc., San Diego, Calif., USA). Growth inhibition (%) was determined as percentage of cells remaining compared to the DMSO-treated cells as control.

PC-3 = settings: SRB at Day 6; for Percentage of Growth Inhibition: PC-3, at 10 μM, NE = no activity at 10 micromolar; for GI50: Homo sapiens, 144 h, PC-3 (Prostate), triplicate
Method: as §1, §2, §3

HCT-15 = system: HCT-15; set-up: Percentage of Growth Inhibition: scale not given here; settings: SRB at Day 6; for Percentage of Growth Inhibition: HCT-15, at 10 μM, NE = no activity at 10 micromolar; for GI50: Homo sapiens, 144 h, HCT-15 (Colon), triplicate
SW480 = settings: SRB at Day 6; for Percentage of Growth Inhibition: SW480, at 10 μM, NE = no activity at 10 micromolar; for GI50: Homo sapiens, 144 h, SW480 (Colon), triplicate
MCF-7 = system: MCF-7; set-up: Percentage of Growth Inhibition: scale not given here; settings: SRB at Day 6; for Percentage of Growth Inhibition: MCF-7, at 10 μM, NE = no activity at 10 micromolar; for GI50: Homo sapiens, MCF7, 144 h, MCF-7 (Breast), triplicate
Method: as §1, §2, §3

SW626 = system: SW626; set-up: Percentage of Growth Inhibition: scale not given here; settings: SRB at Day 6; for Percentage of Growth Inhibition: SW626, at 10 μM, NE = no activity at 10 micromolar; for GI50: Homo sapiens, 144 h, SW626 (Ovarian), triplicate
Method: as §1, §2, §3

A549 = system: A549; set-up: Percentage of Growth Inhibition: scale not given here; settings: SRB at Day 6; for Percentage of Growth Inhibition: A549, at 10 μM, NE = no activity at 10 micromolar; for GI50: Homo sapiens, 144 h, A549 (Lung), triplicate

SMILES | Percentage of Growth Inhibition (A172) | Percentage of Growth Inhibition (PC-3) | Percentage of Growth Inhibition (HCT-15) | Percentage of Growth Inhibition (SW480) | Percentage of Growth Inhibition (MCF-7) | Percentage of Growth Inhibition (SW626) | Percentage of Growth Inhibition (A549) | GI50 (A549) | GI50 (A172) | GI50 (PC-3) | GI50 (HCT-15) | GI50 (SW480) | GI50 (MCF-7) | GI50 (SW626)
CCCCCCCCCCc1ccc(C(=O)NC2(CC(=O)O)CC[N+](C)(C)C2)cc1 (stereo not shown) [Example S22, 3-(Carboxymethyl)-3-(4-decylbenzamido)-1,1-dimethylpyrrolidinium 2,2,2-trifluoroacetate] | 0.1249% | 0.4436% | 0.07473% | 0.6141% | 0.06486% | 0.2198% | – | – | – | – | – | – | – | –
C[N+]1(C)CCC(CC(=O)O)(NC(=O)c2ccc(CCc3ccccc3)o2)CC1 [Example S5, 4-(Carboxymethyl)-1,1-dimethyl-4-(5-phenethylfuran-2-carboxamido)-piperidinium 2,2,2-trifluoroacetate] | 0.01342% | – | – | – | 0.02312% | 0.03032% | – | – | – | – | – | – | – | –
CCCCCCCCc1ccc(NC(=O)NC2(CC(=O)O)CCC[NH+](C)C2)cc1 (stereo not shown) [Example S9, 3-(Carboxymethyl)-1-methyl-3-(3-(4-octylphenyl)ureido)piperidinium 2,2,2-trifluoroacetate] | – | 0.2585% | – | 0.00756% | 0.02731% | 0.02424% | 0.451% | – | – | – | – | – | – | –
CCCCCc1ccc(S(=O)(=O)NC2(CC(=O)O)C[N+](C)(C)C2)cc1 [Example S29, 3-(carboxymethyl)-1,1-dimethyl-3-(4-pentylphenylsulfonamido)-azetidinium 2,2,2-trifluoroacetate] | – | – | – | – | – | – | – | > 50 µM | > 50 µM | > 50 µM | > 50 µM | > 50 µM | 44 µM | > 50 µM
CCCCCCCCc1ccc(NS(=O)(=O)NC2(CC(=O)O)CCC[N+](C)(C)C2)cc1 (stereo not shown) [Example S16, 3-(carboxymethyl)-1,1-dimethyl-3-(N-(4-octylphenyl)sulfamoylamino)-piperidinium 2,2,2-trifluoroacetate] | – | – | – | – | – | – | – | 6.2 µM | 1.1 µM | 2.1 µM | 36 µM | 4 µM | 3.9 µM | 18 µM
CCCCCc1ccc(S(=O)(=O)NC2(CC(=O)O)CC[N+](C)(C)CC2)cc1 [Example S4, 4-(Carboxymethyl)-1,1-dimethyl-4-(4-pentylphenylsulfonamido)piperidinium 2,2,2-trifluoroacetate] | – | – | – | – | – | – | – | – | > 50 µM | > 50 µM | > 50 µM | > 50 µM | – | –
CCCCCc1ccc(S(=O)(=O)NC2(CC(=O)O)CCN(C)CC2)cc1 [Example S3, 4-(carboxymethyl)-1-methyl-4-(4-pentylphenylsulfonamido)piperidinium 2,2,2-trifluoroacetate] | – | – | 0.06515% | 0.0383% | 0.007318% | – | – | – | – | – | – | – | – | –
CCCCCc1ccc(S(=O)(=O)NC2(CC(=O)O)CN(C)C2)cc1 [Example S27, 3-(carboxymethyl)-1-methyl-3-(4-pentylphenylsulfonamido)azetidinium 2,2,2-trifluoroacetate] | – | 0.0865% | – | – | 0.05347% | – | 0.06854% | – | – | – | – | – | – | –
CCCCCCCCc1ccc(NC(=O)NC2(CC(=O)O)CC[N+](C)(C)CC2)cc1 [Example S2, 4-(Carboxymethyl)-1,1-dimethyl-4-(3-(4-octylphenyl)ureido)piperidinium 2,2,2-trifluoroacetate] | – | – | – | – | – | – | – | 99 µM | 1.8 µM | 8.2 µM | 3 µM | 0.7 µM | 10 µM | 2.5 µM
O=C(O)CC1(NC(=O)c2ccc(C#Cc3ccccc3)o2)CNC1 [Example S26, 3-(carboxymethyl)-3-(5-(phenylethynyl)furan-2-carboxamido)-azetidinium 2,2,2-trifluoroacetate] | – | – | – | 0.04449% | 0.1403% | 0.07378% | – | – | – | – | – | – | – | –
CCCCCCCCc1ccc(NC(=O)NC2(CC(=O)O)CNC2)cc1 [Example S23, 3-(carboxymethyl)-3-(3-(4-octylphenyl)ureido)azetidinium 2,2,2-trifluoroacetate] | – | – | – | – | – | – | – | > 50 µM | 7.2 µM | 24 µM | 28 µM | 28 µM | 26 µM | 21 µM
CCCCCc1ccc(S(=O)(=O)NC2(CC(=O)O)CC[N+](C)(C)C2)cc1 (stereo not shown) [Example S20, 3-(carboxymethyl)-1,1-dimethyl-3-(4-pentylphenylsulfonamido)-pyrrolidinium 2,2,2-trifluoroacetate] | 0.1176% | – | – | 0.02596% | 0.2269% | 0.07399% | – | – | – | – | – | – | – | –
CCCCCCCCc1ccc(NS(=O)(=O)NC2(CC(=O)O)CCN(C)CC2)cc1 [Example S7, 4-(carboxymethyl)-1-methyl-4-(N-(4-octylphenyl)sulfamoylamino)-piperidinium 2,2,2-trifluoroacetate] | – | – | – | – | – | – | – | 52 µM | 15 µM | 6 µM | 80 µM | 68 µM | 27 µM | > 50 µM
CCCCCCCCc1ccc(NC(=O)NC2(CC(=O)O)CC[N+](C)(C)C2)cc1 (stereo not shown) [Example S18, 3-(carboxymethyl)-1,1-dimethyl-3-(3-(4-octylphenyl)ureido)-pyrrolidinium 2,2,2-trifluoroacetate] | – | – | – | – | – | – | – | 38 µM | 1.9 µM | 6.6 µM | 5.4 µM | 1.2 µM | 5.9 µM | 3.9 µM
C[N+]1(C)CCC(CC(=O)O)(NC(=O)c2ccc(C#Cc3ccccc3)o2)CC1 [Example S6, 4-(Carboxymethyl)-1,1-dimethyl-4-(5-(phenylethynyl)furan-2-carboxamido)-piperidinium 2,2,2-trifluoroacetate] | 0.05672% | 0.03591% | – | 0.03677% | 0.03714% | 0.2084% | – | – | – | – | – | – | – | –
CCCCCCCCc1ccc(NC(=O)NC2(CC(=O)O)C[N+](C)(C)C2)cc1 [Example S24, 3-(Carboxymethyl)-1,1-dimethyl-3-(3-(4-octylphenyl)ureido)azetidinium 2,2,2-trifluoroacetate] | – | – | – | – | – | – | – | 36 µM | 41 µM | 21 µM | 38 µM | 29 µM | 27 µM | 63 µM
CCCCCCCCCCc1ccc(C(=O)NC2(CC(=O)O)CCN(C)C2)cc1 (stereo not shown) [Example S21, 3-(carboxymethyl)-3-(4-decylbenzamido)-1-methylpyrrolidinium 2,2,2-trifluoroacetate] | 0.1417% | 0.1562% | 0.04235% | 0.09568% | 0.01838% | 0.154% | – | – | – | – | – | – | – | –
